Values of other authors as cited in patent US20040253299A1, “Transdermal therapeutic system (reservoir-tts) for using pramipexole and ropinirole” (priority 2001, published 2004).

Settings: administered orally

| Compound | bioavailability |
| --- | --- |
| CCCNC1CCc2nc(N)sc2C1 (centres unmarked) [pramipexole, 2-amino-6-n-propylamino-4,5,6,7-tetrahydrobenzothiazole] | 90% |
| CCCN(CCC)CCc1cccc2c1CC(=O)N2 [Ropinirole, 4-(2-di-n-propylaminoethyl)-2-(3H)-indolone] | 50% |
